# Measurements reported in patent publication US20230086702A1, “SUBSTITUTED 2-AMINO-PYRAZOLYL-[1,2,4]TRIAZOLO[1,5A]PYRIDINE DERIVATIVES AND USE THEREOF” (The Johns Hopkins University, priority 2019, published 2023).
# Assays:
# LZK = target: T1, LZK (Homo sapiens, UniProt O43283); experiment: LZK biochemical assay (TR-FRET, MKK7 phosphorylation)
# T1 construct: 10 nM LZK, catalytic domain, Carna Biosiences in assay buffer; purchased Carna Biosciences ('Carna Biosiences' [sic])
# T1 sequence (O43283 168-409 limits assumed): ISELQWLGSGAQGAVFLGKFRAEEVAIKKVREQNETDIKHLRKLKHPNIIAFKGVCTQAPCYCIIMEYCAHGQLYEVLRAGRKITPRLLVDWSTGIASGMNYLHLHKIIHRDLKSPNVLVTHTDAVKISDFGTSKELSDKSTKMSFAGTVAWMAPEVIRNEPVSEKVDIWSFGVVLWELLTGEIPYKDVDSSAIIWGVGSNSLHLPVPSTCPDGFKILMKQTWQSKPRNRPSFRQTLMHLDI
# In short: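 LZK catalytic domain (10 nM) phosphorylates His-MKK7 (15 nM) with 15 µM ATP, all final, for 90 min at RT in HEPES buffer pH 7.5 with MgCl2. Phospho-T275/S277 detected by TR-FRET (Eu anti-phospho donor, XL665 anti-His acceptor) after 16 h at 32 °C in EDTA stop buffer. Inhibition lowers the 665/Eu ratio.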
# DLK = target: T2, DLK (Homo sapiens, UniProt Q12852); experiment: DLK biochemical assay (TR-FRET, MKK7 phosphorylation)
# T2 construct: 10 nM DLK, catalytic domain, Carna Biosiences; purchased Carna Biosciences ('Carna Biosiences' [sic])
# T2 sequence (Q12852 125-366 limits assumed): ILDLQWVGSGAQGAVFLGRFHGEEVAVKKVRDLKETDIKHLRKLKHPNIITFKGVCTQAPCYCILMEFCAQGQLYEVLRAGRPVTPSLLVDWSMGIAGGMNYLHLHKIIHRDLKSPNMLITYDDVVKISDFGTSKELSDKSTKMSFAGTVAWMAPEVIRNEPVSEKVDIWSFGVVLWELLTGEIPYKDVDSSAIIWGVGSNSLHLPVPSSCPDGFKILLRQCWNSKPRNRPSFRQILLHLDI
# In short: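 DLK catalytic domain (10 nM) phosphorylates His-MKK7 (15 nM) at 60 μM ATP for 90 min at RT in pH 7.5 Hepes buffer (final concentrations). Phospho-T275/S277 is detected by TR-FRET (Eu anti-phospho donor, XL665 anti-His acceptor) after 16 h at 37° C (1536 format) or 4° C (384 format).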
Compound,IC50 (LZK) [nM],IC50 (DLK) [nM]
"Nc1nc2c(-c3ccc(C(F)(F)F)nc3)cc(-c3cnn(C4CCN(C5COC5)CC4)c3)cn2n1 [II-46, 6-{1-[1-(Oxetan-3-yl)piperidin-4-yl]-1H-pyrazol-4-yl}-8-[6-(trifluoromethyl)pyridin-3-yl][1,2,4]triazolo[1,5-a]pyridin-2-amine]",380,750
"Nc1nc2cc(-c3cnn(Cc4ccccc4)c3)cc(-c3ccc(C4CC4)nc3)n2n1 [II-47, 7-(1-Benzyl-1H-pyrazol-4-yl)-5-(6-cyclopropylpyridin-3-yl)[1,2,4]triazolo[1,5-a]pyridin-2-amine]",120,33
"Nc1nc2cc(-c3cnn(C4CCN(C5COC5)CC4)c3)cc(-c3ccc(C4CC4)nc3)n2n1 [II-83, 5-(6-Cyclopropylpyridin-3-yl)-7-{1-[1-(oxetan-3-yl)piperidin-4-yl]-1H-pyrazol-4-yl}[1,2,4]triazolo[1,5-a]pyridin-2-amine]",110,210
"Nc1nc2cc(-c3cnn(Cc4ccccc4)c3)cc(-c3cnc(C4CC4)nc3)n2n1 [II-84, 7-(1-Benzyl-1H-pyrazol-4-yl)-5-(2-cyclopropylpyrimidin-5-yl)[1,2,4]triazolo[1,5-a]pyridin-2-amine]",290,55
"Nc1nc2cc(-c3cnn(Cc4ccccc4)c3)cc(-c3cnccn3)n2n1 [II-86, 7-(1-Benzyl-1H-pyrazol-4-yl)-5-(pyrazin-2-yl)[1,2,4]triazolo[1,5-a]pyridin-2-amine]",900,54
"CCc1cnc(-c2cc(-c3cnn(Cc4ccccc4)c3)cc3nc(N)nn23)cn1 [II-87, 7-(1-Benzyl-1H-pyrazol-4-yl)-5-(5-ethylpyrazin-2-yl)[1,2,4]triazolo[1,5-a]pyridin-2-amine]",530,42
"Cc1cc(-c2cc(-c3cnn(Cc4ccccc4)c3)cc3nc(N)nn23)cnn1 [II-88, 7-(1-Benzyl-1H-pyrazol-4-yl)-5-(6-methylpyridazin-4-yl)[1,2,4]triazolo[1,5-a]pyridin-2-amine]",620,480
"CC[C@@H](c1ccccc1)n1cc(-c2cc(-c3cnn(C)c3)c3nc(N)nn3c2)cn1 [II-90, 8-(1-Methyl-1H-pyrazol-4-yl)-6-{1-[(1S)-1-phenylpropyl]-1H-pyrazol-4-yl}[1,2,4]triazolo[1,5-a]pyridin-2-amine]",230,6.5
"CC[C@@H](c1ccccc1)n1cc(-c2cc(-c3cnn(CC)c3)c3nc(N)nn3c2)cn1 [II-91, 8-(1-Ethyl-1H-pyrazol-4-yl)-6-{1-[(1S)-1-phenylpropyl]-1H-pyrazol-4-yl}[1,2,4]triazolo[1,5-a]pyridin-2-amine]",115,5.2

# Results, then the compound that gave them:
IC50 (LZK) [nM],IC50 (DLK) [nM],Compound
32,15,"CCC(c1ccc(C(F)(F)F)nc1)n1cc(-c2cc(-c3ccc(=O)n(CC(F)(F)F)c3)n3nc(N)nc3c2)cn1 (single isomer, unassigned) [II-189, 5-[2-Amino-7-(1-{1-[6-(trifluoromethyl)pyridin-3-yl]propyl}-1H-pyrazol-4-yl)[1,2,4]triazolo[1,5-a]pyridin-5-yl]-1-(2,2,2-trifluoroethyl)pyridin-2(1H)-one]"
2.2,1.3,"Nc1nc2cc(-c3cnn(C(c4ccc(C(F)(F)F)nc4)C4CCOCC4)c3)cc(-c3ccc(=O)n(CC(F)(F)F)c3)n2n1 (single isomer, unassigned) [II-192, 5-[2-Amino-7-(1-{tetrahydro-2H-pyran-4-yl[6-(trifluoromethyl)pyridin-3-yl]methyl}-1H-pyrazol-4-yl)[1,2,4]triazolo[1,5-a]pyridin-5-yl]-1-(2,2,2-trifluoroethyl)pyridin-2(1H)-one]"
12,15,"Nc1nc2cc(-c3cnn(C(c4ccc(C(F)(F)F)nc4)C4CCOCC4)c3)cc(-c3ccc(=O)n(CC(F)(F)F)c3)n2n1 (single isomer, unassigned) [II-193, 5-[2-Amino-7-(1-{tetrahydro-2H-pyran-4-yl[6-(trifluoromethyl)pyridin-3-yl]methyl}-1H-pyrazol-4-yl)[1,2,4]triazolo[1,5-a]pyridin-5-yl]-1-(2,2,2-trifluoroethyl)pyridin-2(1H)-one]"
5.2,1.1,"Nc1nc2cc(-c3cnn(C(c4ccc(C(F)(F)F)nc4)C4CCOCC4)c3)cc(-c3cn(CC(F)(F)F)c(=O)cn3)n2n1 (single isomer, unassigned) [II-195, 5-[2-Amino-7-(1-{tetrahydro-2H-pyran-4-yl[6-(trifluoromethyl)pyridin-3-yl]methyl}-1H-pyrazol-4-yl)[1,2,4]triazolo[1,5-a]pyridin-5-yl]-1-(2,2,2-trifluoroethyl)pyrazin-2(1H)-one]"
50,16,"Nc1nc2cc(-c3cnn(C(c4ccc(C(F)(F)F)nc4)C4CCOCC4)c3)cc(-c3cn(CC(F)(F)F)c(=O)cn3)n2n1 (single isomer, unassigned) [II-196, 5-[2-Amino-7-(1-{tetrahydro-2H-pyran-4-yl[6-(trifluoromethyl)pyridin-3-yl]methyl}-1H-pyrazol-4-yl)[1,2,4]triazolo[1,5-a]pyridin-5-yl]-1-(2,2,2-trifluoroethyl)pyrazin-2(1H)-one]"
150,6.7,"CC[C@@H](c1ccccc1)n1cc(-c2cc(-c3cnn(C4CC4)c3)c3nc(N)nn3c2)cn1 [II-92, 8-(1-Cyclopropyl-1H-pyrazol-4-yl)-6-{1-[(1S)-1-phenylpropyl]-1H-pyrazol-4-yl}[1,2,4]triazolo[1,5-a]pyridin-2-amine]"
68,19,"CC[C@@H](c1ccccc1)n1cc(-c2cc(-c3cnn(CC(F)(F)F)c3)c3nc(N)nn3c2)cn1 [II-93, 6-{1-[(1S)-1-Phenylpropyl]-1H-pyrazol-4-yl}-8-[1-(2,2,2-trifluoroethyl)-1H-pyrazol-4-yl][1,2,4]triazolo[1,5-a]pyridin-2-amine]"
380,8.1,"CC[C@@H](c1ccccc1)n1cc(-c2cc(-c3cnn(CCO)c3)c3nc(N)nn3c2)cn1 [II-97, 2-[4-(2-Amino-6-{1-[(1S)-1-phenylpropyl]-1H-pyrazol-4-yl}[1,2,4]triazolo[1,5-a]pyridin-8-yl)-1H-pyrazol-1-yl]ethan-1-ol]"
56,14,"CC[C@@H](c1ccc(F)cc1)n1cc(-c2cc(-c3cnn(CC(F)(F)F)c3)c3nc(N)nn3c2)cn1 [II-98, 6-{1-[(1S)-1-(4-fluorophenyl)propyl]-1H-pyrazol-4-yl}-8-[1-(2,2,2-trifluoroethyl)-1H-pyrazol-4-yl][1,2,4]triazolo[1,5-a]pyridin-2-amine]"
140,240,"Nc1nc2c(-c3cnn(CC(F)(F)F)c3)cc(-c3cnn(C4CCN(C5COC5)CC4)c3)cn2n1 [II-120, 6-{1-[1-(Oxetan-3-yl)piperidin-4-yl]-1H-pyrazol-4-yl}-8-[1-(2,2,2-trifluoroethyl)-1H-pyrazol-4-yl][1,2,4]triazolo[1,5-a]pyridin-2-amine]"
150,32,"Nc1nc2cc(-c3cnn(Cc4ccccc4)c3)cc(-c3cnn(C(F)F)c3)n2n1 [II-121, 7-(1-Benzyl-1H-pyrazol-4-yl)-5-[1-(difluoromethyl)-1H-pyrazol-4-yl][1,2,4]triazolo[1,5-a]pyridin-2-amine]"
37,39,CC(n1cc(-c2cc(-c3cnn(Cc4ccccc4)c3)cc3nc(N)nn23)cn1)C(F)(F)F (stereo not drawn) [II-122]
